Data as given in BindingDB's records for doi:10.1021/jm00075a032 (University of Bologna, 1993).

What was measured:
[1] = target: T1, Muscarinic acetylcholine receptor M2 (Rattus norvegicus, UniProt P10980)
T1 sequence (P10980 whole entry): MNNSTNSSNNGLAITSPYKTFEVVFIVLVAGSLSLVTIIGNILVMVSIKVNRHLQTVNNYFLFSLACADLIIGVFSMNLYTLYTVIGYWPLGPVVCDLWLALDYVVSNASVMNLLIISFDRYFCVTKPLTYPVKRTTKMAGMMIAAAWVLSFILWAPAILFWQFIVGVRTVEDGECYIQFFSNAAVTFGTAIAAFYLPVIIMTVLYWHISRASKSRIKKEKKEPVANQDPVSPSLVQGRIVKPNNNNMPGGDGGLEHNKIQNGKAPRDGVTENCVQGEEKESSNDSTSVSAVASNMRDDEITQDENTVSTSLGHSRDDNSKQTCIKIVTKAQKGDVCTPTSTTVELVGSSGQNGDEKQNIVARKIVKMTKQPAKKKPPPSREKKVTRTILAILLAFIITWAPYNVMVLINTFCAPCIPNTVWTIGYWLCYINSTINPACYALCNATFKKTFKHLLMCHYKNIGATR

[2] = target: T2, Muscarinic acetylcholine receptor M4 (Rattus norvegicus, UniProt P08485)
T2 sequence (P08485 whole entry): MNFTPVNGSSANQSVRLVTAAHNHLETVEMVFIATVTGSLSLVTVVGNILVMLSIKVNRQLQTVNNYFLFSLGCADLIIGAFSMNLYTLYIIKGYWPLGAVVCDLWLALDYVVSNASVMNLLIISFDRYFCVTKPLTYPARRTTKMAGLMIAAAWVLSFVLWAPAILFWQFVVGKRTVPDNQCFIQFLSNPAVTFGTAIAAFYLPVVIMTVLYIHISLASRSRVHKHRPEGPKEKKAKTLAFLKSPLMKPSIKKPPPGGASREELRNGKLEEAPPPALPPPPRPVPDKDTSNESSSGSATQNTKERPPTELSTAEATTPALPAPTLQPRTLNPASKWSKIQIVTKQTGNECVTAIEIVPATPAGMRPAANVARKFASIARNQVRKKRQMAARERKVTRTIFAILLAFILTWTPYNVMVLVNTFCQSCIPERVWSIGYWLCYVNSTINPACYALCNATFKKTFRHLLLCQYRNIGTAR

[3] = target: T3, Muscarinic acetylcholine receptor M1 (Rattus norvegicus, UniProt P08482)
T3 sequence (P08482 whole entry): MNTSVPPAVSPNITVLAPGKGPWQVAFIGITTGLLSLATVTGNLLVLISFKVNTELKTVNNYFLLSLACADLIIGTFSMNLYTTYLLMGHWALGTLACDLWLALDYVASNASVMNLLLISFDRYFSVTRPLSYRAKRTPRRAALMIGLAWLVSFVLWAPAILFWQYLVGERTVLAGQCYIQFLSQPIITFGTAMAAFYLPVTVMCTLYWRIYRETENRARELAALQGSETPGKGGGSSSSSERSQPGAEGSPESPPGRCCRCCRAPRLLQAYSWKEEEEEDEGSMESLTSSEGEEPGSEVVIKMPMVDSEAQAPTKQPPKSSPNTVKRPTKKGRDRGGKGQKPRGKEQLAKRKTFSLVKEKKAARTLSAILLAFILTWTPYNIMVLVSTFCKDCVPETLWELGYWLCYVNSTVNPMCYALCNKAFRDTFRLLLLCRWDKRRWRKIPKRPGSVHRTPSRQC

[4] = target: Muscarinic acetylcholine receptor M3 (Rattus norvegicus, UniProt P08483)
Muscarinic acetylcholine receptor M3, sequence (P08483 whole entry): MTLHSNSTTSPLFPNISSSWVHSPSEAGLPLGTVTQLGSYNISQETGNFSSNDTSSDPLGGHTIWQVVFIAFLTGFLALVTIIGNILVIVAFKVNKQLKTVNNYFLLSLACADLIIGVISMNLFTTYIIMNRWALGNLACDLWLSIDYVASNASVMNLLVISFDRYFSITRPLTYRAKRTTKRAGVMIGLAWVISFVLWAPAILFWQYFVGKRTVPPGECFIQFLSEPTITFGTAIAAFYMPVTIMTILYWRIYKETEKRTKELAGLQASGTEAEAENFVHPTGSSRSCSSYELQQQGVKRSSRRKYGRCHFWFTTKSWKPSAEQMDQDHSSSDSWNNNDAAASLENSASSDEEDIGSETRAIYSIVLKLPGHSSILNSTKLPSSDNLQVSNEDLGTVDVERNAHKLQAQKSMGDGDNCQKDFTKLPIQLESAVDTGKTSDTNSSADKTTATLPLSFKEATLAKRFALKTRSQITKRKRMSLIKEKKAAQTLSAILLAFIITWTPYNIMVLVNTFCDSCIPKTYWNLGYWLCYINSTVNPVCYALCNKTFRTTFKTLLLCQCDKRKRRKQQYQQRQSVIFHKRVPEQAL

Ki [1]: 0.29 nM
Ki [2]: 11.7 nM
Ki [3]: 23.4 nM
Ki [4]: 646 nM
SMILES: CN(CCCCCCNCCCCCCCCNCCCCCCN(CN1c2ccccc2C(=O)Nc2cccnc21)CN1c2ccccc2C(=O)Nc2cccnc21)CN1c2ccccc2C(=O)Nc2cccnc21 [methoctramine analog 5]
